Results as given in patent publication US12240921B2, “Peptides” (priority 2022, dated 2025).
Starred links: 1 amine or outer side, 2 acyl side, 3 side chain; linkers in the order of their positions; H or OH if unused. Groups on a side chain read outwards from the residue. No end group written: not given here. *: point of attachment. C18 diacid = O=C(O)CCCCCCCCCCCCCCCCC(=O)*; γGlu = O=C(O)[C@H](CCC(=O)[*:2])N[*:1]; AEEA = NCCOCCOCC(=O)O

Assays:
Wistar Kyoto rats = assay: Wistar Kyoto (WKY) rat model of depression: EEG/EMG sleep-wake recording; assay type: in vivo; settings: single injection, 0-3 h post dosing
Description: Ketamine (10 mg/kg), a N-methyl-D-aspartate-receptor antagonist, was used as positive control. All rats received all treatments 2 h after light onset in a pseudo randomized crossover fashion with a minimum period of 3 days between treatments. The rats were placed individually in recording boxes, and sleep-wake behaviour was recorded for 24 h. EEG/EMG signals were amplified, analogue filtered (0.5-100 Hz), digitized (500 Hz), and then digitally filtered (EEG: 0.5-100 Hz and EMG: 70-100 Hz). EEG/EMG recordings were semi-automatically scored as wake, non-REM (NREM) sleep, or REM sleep in 10 s epochs using SleepSign. Sleep stages were defined as below: […]

BDNF = assay: In vivo efficacy in wild-type mice, single SC dose: BDNF levels (western blotting); parameters: species or system mouse; settings: single SC dose: LLP11 21 mg/kg, LLP12 26 mg/kg, CLP11 21 mg/kg; 4 and 8 hours
Description: 4 and 8 hour timepoints were chosen.
4-hour timepoint were chosen.

CNC1(c2ccccc2Cl)CCCCC1=O (stereo not drawn) [ketamine]
REM & NREM sleep (Wistar Kyoto rats): at the expense of REM & NREM sleep
time spent awake (wakefulness) (Wistar Kyoto rats): increased time spent awake

LLP12: Linear lipidated peptide K*EQEMTEPVEHEEDV-NH2, * = C18DA-γGlu-OEG-OEG- (K([AEEA-AEEA-γGlu-C18 diacid])EQEMTEPVEHEEDV-NH2; N-terminus assumed; SMILES CSCC[C@H](NC(=O)[C@H](CCC(=O)O)NC(=O)[C@H](CCC(N)=O)NC(=O)[C@H](CCC(=O)O)NC(=O)[C@@H](N)CCCCNC(=O)COCCOCCNC(=O)COCCOCCNC(=O)CC[C@H](NC(=O)CCCCCCCCCCCCCCCCC(=O)O)C(=O)O)C(=O)N[C@H](C(=O)N[C@@H](CCC(=O)O)C(=O)N1CCC[C@H]1C(=O)N[C@H](C(=O)N[C@@H](CCC(=O)O)C(=O)N[C@@H](Cc1c[nH]cn1)C(=O)N[C@@H](CCC(=O)O)C(=O)N[C@@H](CCC(=O)O)C(=O)N[C@@H](CC(=O)O)C(=O)N[C@H](C(N)=O)C(C)C)C(C)C)[C@@H](C)O)
BDNF levels in vivo (BDNF): increase BDNF in vivo
